The CheMixHub drug solubility set

Assay: xn = mol fraction of the nth substance listed, in the solute-free solvent

Nc1cc(-c2ccncc2)c[nH]c1=O + CN(C)C=O + O
solubility (g/100 g solution)
Conditions	278.15 K	283.15 K	288.15 K	293.15 K	298.15 K	303.15 K	308.15 K	313.15 K	318.15 K	323.15 K
x2 = 0.02666	0.00203	0.00236	0.0028	0.00324	0.00375	0.00428	0.00488	0.00552	0.00624	0.00705
x2 = 0.05806	0.00422	0.00489	0.00574	0.00661	0.00759	0.00861	0.00975	0.011	0.0123	0.0139
x2 = 0.09556	0.00683	0.00794	0.00916	0.0106	0.0122	0.014	0.0156	0.0177	0.0198	0.0224
x2 = 0.1412	0.00979	0.0113	0.0131	0.015	0.0171	0.0195	0.0221	0.0248	0.0277	0.0316
x2 = 0.1978	0.0124	0.0143	0.0167	0.0193	0.022	0.0249	0.0283	0.0322	0.036	0.0407
x2 = 0.27	0.0152	0.0177	0.0208	0.0238	0.0272	0.0308	0.0348	0.0395	0.0442	0.0497
x2 = 0.3652	0.0161	0.0195	0.0231	0.0268	0.0307	0.035	0.0397	0.0451	0.0506	0.0572
x2 = 0.4965	0.0192	0.0227	0.0267	0.0306	0.035	0.0398	0.0452	0.0516	0.0579	0.0654
x2 = 0.6893	0.0186	0.0221	0.0258	0.0305	0.0349	0.0402	0.0458	0.0523	0.0593	0.0673

Nc1ncn(C2OC(CO)C(O)C2O)c(=O)n1 (stereo unspecified) + O + CO
solubility (g/100 g solution)
Conditions	278.15 K	283.15 K	288.15 K	293.15 K	298.15 K	303.15 K	308.15 K	313.15 K	318.15 K
x2 = 0.3077	0.0966	0.113	0.129	0.148	0.169	0.194	0.228	0.273	0.324
x2 = 0.5424	0.198	0.229	0.265	0.307	0.359	0.419	0.491	0.575	0.673
x2 = 0.7273	0.335	0.397	0.463	0.542	0.632	0.742	0.869	1	1.14
x2 = 0.8767	0.521	0.634	0.758	0.888	1.02	1.17	1.34	1.52	1.71

O=C1C=CC(=O)N1c1ccccc1Br + CN1CCCC1=O + O
solubility (g/100 g solution)
Conditions	278.15 K	283.15 K	288.15 K	293.15 K	298.15 K	303.15 K	308.15 K	313.15 K	318.15 K	323.15 K
x2 = 0.0198	0.759	0.975	1.23	1.5	1.9	2.31	2.81	3.43	4.09	4.91
x2 = 0.04347	2.17	2.74	3.4	4.11	5.08	6.17	7.35	8.81	10.3	12.2
x2 = 0.07228	4.95	6.03	7.43	8.92	10.6	12.4	14.7	17.2	19.7	22.4
x2 = 0.1081	8.04	9.64	11.7	13.7	16.3	18.8	21.8	24.8	28	31.5
x2 = 0.1538	12.4	14.7	17.1	20	22.9	26.2	29.7	33.3	36.9	40.5
x2 = 0.2143	16.7	19.8	22.4	25.9	29.3	33.2	37	40.7	44.8	48.7
x2 = 0.2979	21.5	24.7	28.1	31.6	35.2	39.1	43.5	47.2	51.2	55.1
x2 = 0.421	24.7	28.2	31.9	35.7	40	44.2	48.6	52.7	56.9	60.9
x2 = 0.6207	26.4	29.9	34.1	38.1	42	46.6	50.6	55.1	59.5	63.9
